Blank lines part the entries; values can stand above or below the molecule they belong to. No end group written: not given here.
Key:
[1] = Serum stability of PD-L1 targeting peptides; assay type: in vitro ADME; details: incubated with whole serum obtained from mice up to 24h; HPLC peptide peak
Experimental: Mouse blood was collected and allowed to cloth using a microtube for 15-20 min in RT. Serum was then centrifuged at 12000rpm at 4 °C. The upper portion (serum) was collected for testing the peptide stability. The incubated samples were diluted 100-fold and fractionated by C18 reverse phage high performance liquid chromatography (HPLC) with a linear gradient of acetonitrile (0.1% trifluoroacetate in water for equilibration and 0.1% trifluoroacetate in acetonitrile for elution). The peptide peak was collected and vacuum dried.
To measure the KD values of the peptides SPR assays were performed using a streptavidin chip coated with biotin-peptides (FIG. 3a and FIG. 3b). Four different concentrations of PD-L1 binding peptides were for PD-L1Pep-2. […] PD-L1 expression was then knocked down in the MDA-MB231 cell expressing PD-L1. siRNA was tested at different concentration (FIG. 3d). […] To further examine the stability of PD-L1 binding peptides, the peptide was incubated with whole serum obtained from mice up to 24h.

[2] = tested on: CT26 mouse syngeneic colon tumor model; test: Combination therapy of PD-L1 binding peptides with doxorubicin (tumor volume, body weight, survival, immune cell analysis by flow cytometry); assay type: in vivo
Experimental: (§1) 6-8-week-old WT Balb/c mice were purchased. Mice was cared and maintained under the guidelines of the Institutional Animal Care and Use Committee (IACUC) of Kyungpook National University (2014-0001-8.). Tumor was injected onto the lower right flank of the mice. For the in-vivo homing imaging, the tumor was developed for 7 days, after the tumor size reached to 100mm^3, the mice were injected with 100µl of 100mM Flamma-675 NIR fluorescence dye labelled peptides and allow the complete circulation for an hour. After incubation, the mice were anesthetized, and the image was taken using the IVIS imaging system. After completing the imaging, the mice were sacrificed and the tumor along with the other organs were isolated out and subjected to ex-vivo imaging using the IVIS imaging machine. For the antitumor therapy the mice were randomized and grouped after the tumor size was reached to approximately 100mm^3. The peptide was then injected intravenously (5mg/kg) 100µg/mice for 3 weeks, 3 injections/ week. Doxorubicin was injected intraperitoneal (4mg/kg) once a week. Tumor size was measured using a digital caliper, and the tumor volume was calculated using the formula (Volume ¼(L-W-H)/2. (Length: longest dimension, Width: shorter dimension, parallel to the mouse body and Height: perpendicular to the length and width). All mice were checked for the ulceration and at the end of the treatment and the mice were sacrificed for the immune cell analysis.
(§2) Tumors were isolated, minced and incubated with a digestion buffer containing collagenase D (5mg/ml) with the RPMI-1640 medium at 37 °C for 40min. The cell suspension was passed through a cell strainer. The single cell suspension was made ready to use and CD45 antibody was used to stain the tumor infiltrating leukocytes and then analyzed with following antibodies for CD4, CD8 and F4/80. The stained cells were then subjected to flow cytometry (Novocyte).
To enhance the efficacy of immunotherapy with PD-L1-binding peptides, the present inventors combined the peptides with doxorubicin, a chemotherapeutic agent known to induce immunogenic cell death, in CT26 mouse syngeneic colon tumor model. PD-L1 peptides doses were reduced from 12 injections to 9 injections and doxorubicin was given once a week (FIG. 6a). The combination therapy controlled the tumor volume more drastically compared to the previous single treatment (FIG. 6b). In addition, the combination therapy maintained the body weight unchanged compared to the control group, and increased the survival percentage (FIG. 6c and FIG. 6d).

[3] = tested on: CT26 syngeneic mouse model; test: Antitumor therapy with PD-L1 binding peptides alone (tumor volume, body weight, survival, immune cell analysis, immunostaining); assay type: in vivo; details: peptide intravenously every alternative day for 24 days; compared to the control peptide and PBS group
Experimental: as §1, with “After completing the imaging, the mice were sacrificed and the tumor along with the other organs were isolated out and subjected to ex-vivo imaging using the IVIS imaging machine. For the antitumor therapy the mice were randomized and grouped after the tumor size was reached to approximately 100mm^3. The peptide was then injected intravenously (5mg/kg) 100µg/mice for 3 weeks, 3 injections/ week. Doxorubicin was injected intraperitoneal (4mg/kg) once a week.” left out, “analysis. […]” for “analysis.”
as §2, with “The cell suspension was passed through a cell strainer.” left out, “The stained cells were then subjected to flow cytometry (Novocyte).” left out

[4] = biological target: T1, GFP-tagged PD-L1 transiently overexpressed on Hek-293T cells (human, UniProt Q9NZQ7 19-290); test: immunofluorescence, FITC-peptide on transfected HEK 293T cells
T1 construct: whole, on cells; also called PD-L1-overexpressing cells; not shown: GFP tag

PD-L1 on MDA-MB231 cells = biological target: T2, PD-L1 on MDA-MB231 cells (human, UniProt Q9NZQ7 19-290); test: immunofluorescence and flow cytometry, FITC-peptide on MDA-MB231 cells
T2 construct: whole, on cells; also called MDA-MB 231 cells expressing PD-L1

[5] = biological target: T1, GFP-tagged PD-L1 transiently …; test: phage peptide display selection on PD-L1 overexpressing cells
[6] = 'from' value of the printed increase, apparently single peptide treatment
[7] = 'to' value of the printed increase, apparently combination with doxorubicin

T2 sequence (Q9NZQ7 19-290): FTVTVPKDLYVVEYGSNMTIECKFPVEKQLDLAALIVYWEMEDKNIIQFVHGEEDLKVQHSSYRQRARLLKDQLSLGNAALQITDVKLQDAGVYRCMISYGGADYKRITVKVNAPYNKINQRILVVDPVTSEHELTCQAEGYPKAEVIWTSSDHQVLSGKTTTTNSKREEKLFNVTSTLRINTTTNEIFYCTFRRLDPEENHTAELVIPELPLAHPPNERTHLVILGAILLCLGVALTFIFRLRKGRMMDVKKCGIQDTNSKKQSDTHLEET
T1 sequence (Q9NZQ7 19-290): as above

time the peptide peak remained intact in serum [1]: 4 h
Molecule: CVRARTR [PD-L1Pep-2, CVRARTR]

Molecule: CLQKTPKQC [PD-L1Pep-1]
CD4+ T cells in tumor tissue [2, 6]: 0.4% | expression percentage of CD8+ T cells in tumor tissue [2, 6]: 1.5% | CD4+ T cells in tumor tissue [2, 7]: 6% | expression percentage of CD8+ T cells in tumor tissue [2, 7]: 6.2% | time the peptide peak remained intact in serum [1]: 8 h | tumor volume [3]: robust effect

binding result [4]: binds | binding result (PD-L1 on MDA-MB231 cells): binds
B1: PD-L1Pep-2 (peptide)
peptide: CVRARTR
modifications: also: N-terminal FITC, biotin or Flamma-675 according to assay
notes: Synthetic 7mer (CVRARTR); also called PBP

binding result (PD-L1 on MDA-MB231 cells): binds | binding result [5]: binds
B2: PD-L1Pep-1 (peptide)
peptide: CLQKTPKQC
modifications: cysteine pairing not given here; also: N-terminal FITC, biotin or Flamma-675 according to assay
notes: also called PBP
